In paper PMC11623267, “Inhibitors of malaria parasite cyclic nucleotide phosphodiesterases block asexual blood-stage development and mosquito transmission” (Science Advances, 2024):
Where two headings read alike, the source gives them in different places.

Key:
P. falciparum 3D7 = assay: Ex vivo 72-hour SYBR Green assay, 3D7 control (Uganda); assay type: cell-based, Plasmodium falciparum; settings: Ugandan ex vivo assay control; read-out: EC50 lab strain 3D7
Method: Samples were delivered to the adjacent IDRC laboratory at Tororo District Hospital or transported by car from Masafu Hospital on the day of collection for storage of blood spots on filter paper (for isolation of nucleic acids) and initiation of ex vivo culture of malaria parasites. […] Before assay, 10 mM antimalarial stock compounds were diluted as necessary in DMSO and stored at −20°C. […] Compounds were serially diluted threefold in a 96-well assay plate in complete medium to a final volume of 50 μl, in columns 1 to 10, with concentrations optimized to capture full dose-response curves. Column 11 contained compound-free controls, while column 12 contained uninfected human RBC controls. Parasite culture (150 μl) was added to columns 1 to 11 of the assay plate with a final volume of 200 μl per well, 0.2% parasitemia, and 2% hematocrit. […] Thawed plates were incubated with SYBR Green lysis buffer for 1 hour in the dark as previously reported ([62]). Fluorescence was quantified using a BMG Fluostar Optima plate reader at an excitation of 485 nm and an emission of 530 nm, and data were plotted using GraphPad Prism 7. The data were curve fit with a variable slope function to estimate IC50 values. For each isolate, a Z′ factor to assess assay quality was calculated from positive controls (eight drug-free wells) and negative controls (eight parasite-free, red cell control wells). Z′ values over 0.5 were considered good assays, but each curve was also examined by eye for suitability. Some assays with Z′ below 0.5 may be considered valid depending on factors such as the SE of the curve-fit IC50.

[1] = system: P. falciparum NF54-HGL stage V gametocytes fed to A. stephensi mosquitoes; assay: SMFA dose response (luminescence); assay type: in vivo, Plasmodium falciparum
Method: Compounds were diluted in DMSO and then in culture medium (RPMI 1640 supplemented with 367 μM hypoxanthine, 25 mM Hepes, 25 mM sodium bicarbonate, and 10% human type A serum) to achieve a final DMSO concentration of 0.1%. Compounds were incubated with stage V gametocytes from the P. falciparum NF54-HGL reporter strain ([60]) for 48 hours at 37°C in Eppendorf tubes. Subsequently, parasites were pelleted by centrifugation (20 s at 20,000g) and resuspended in human type A serum containing diluted compound (final DMSO concentration of 0.1%) and human type O RBCs to achieve a hematocrit of 50%. This blood meal was then fed to 3- to 5-day-old A. stephensi mosquitoes [Sind-Kasur Nijmegen strain ([61])] for 10 min. Following feeding, unfed mosquitoes were removed, and mosquitoes were maintained at 26°C and 70 to 80% relative humidity. Eight days after feeding, oocyst intensity and prevalence were assessed by luminescence measurement of individual mosquitoes as described ([60]). All conditions were tested in duplicate, and for each replicate, a total of 24 mosquitoes were analyzed. IC50 values were estimated by fitting a four-parameter Hill model to the data using least squares to find the best fit. Controls included vehicle (0.1% DMSO) and 10 μM DHA.

Row | Structure (SMILES) | EC50 (P. falciparum 3D7) [nM] | IC50 ([1]; read-out: SMFA IC50 infection (transmission) prevalence, 48 hours incubation; oocysts 8 days after feeding) [nM] | IC50 ([1]; read-out: SMFA IC50 infection (transmission) prevalence; 48 hours incubation; oocysts 8 days after feeding) [nM] | IC50 ([1]; read-out: SMFA IC50 oocyst (transmission) intensity, 48 hours incubation; oocysts 8 days after feeding) [nM] | IC50 ([1]; read-out: SMFA IC50 oocyst (transmission) intensity; 48 hours incubation; oocysts 8 days after feeding) [nM]
1 | CC(C)c1[nH]nc2c(=O)[nH]c(Cc3ccccc3F)nc12 [SAL-0010042] | 132 |  |  |  | 
2 | CC(C)c1n[nH]c2c(=O)[nH]c(Cc3ccc(F)cc3F)nc12 [SAL-0010003] |  | 116 | 116 | 67.3 | 67
